Where “and” joins values, the source holds several entries; their conditions need not be identical. Equal values may be shown once. Toxic doses and inconclusive results are not listed.
Tested on: BDF1 mice, P388 leukemia ip, median survival T/C
Experiment: NCI In Vivo Anticancer Drug Screen. Data for tumor model P388 Leukemia (intraperitoneal) in B6D2F1 (BDF1) mice
Settings: endpoint: median survival time, higher = longer survival
Method in brief: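 Steps: implant the tumour, treat one group with compound and another with vehicle, record survival, then divide treated by control.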

[1] = dose: 100.0 mg/kg/injection, schedule: Q04DX003 (ip), vehicle: saline
[2] = dose: 200.0 mg/kg/injection, schedule: Q04DX003 (ip), vehicle: saline
[3] = dose: 400.0 mg/kg/injection, schedule: Q04DX003 (ip), vehicle: saline

Question: Which T/C (dose: 100.0 mg/kg/injection, schedule: Q01DX009 (ip), vehicle: saline) does the source give for CC(Br)C(=O)NCC(=O)NCC(=O)O (configuration not stated) here?
Answer: The T/C was 108 % of control.

Question: What about the T/C [1] of the same molecule?
Answer: The T/C was 108 % of control.

Question: And the T/C (dose: 200.0 mg/kg/injection, schedule: Q01DX009 (ip), vehicle: saline)?
Answer: The T/C was 91 % of control.

Question: And the T/C [2]?
Answer: The T/C was 91 % of control.

Question: What about the T/C [3] of the same molecule?
Answer: The T/C was 87 % of control.

Question: For O=NN(CCCl)C(=O)Nc1ccc(CCCl)cc1, which T/C (dose: 37.5 mg/kg/injection, schedule: Q01DX009 (ip), vehicle: other) is on record?
Answer: The T/C was 90 % of control.

Question: And the T/C (dose: 37.5 mg/kg/injection, schedule: Q04DX003 (ip), vehicle: other)?
Answer: The T/C was 120 % of control.

Question: What about the T/C (dose: 66.0 mg/kg/injection, schedule: Q04DX003 (ip), vehicle: other) of the same molecule?
Answer: The T/C was 90 % of control.

Question: What about the T/C (dose: 75.0 mg/kg/injection, schedule: Q01DX009 (ip), vehicle: other) of the same molecule?
Answer: The T/C was 100 % of control.

Question: What about the T/C (dose: 75.0 mg/kg/injection, schedule: Q04DX003 (ip), vehicle: other) of the same molecule?
Answer: The T/C was 120 % of control.

Question: And the T/C (dose: 99.0 mg/kg/injection, schedule: Q04DX003 (ip), vehicle: other)?
Answer: The T/C was 95 % of control.

Question: And the T/C (dose: 150.0 mg/kg/injection, schedule: Q01DX009 (ip), vehicle: other)?
Answer: The T/C was 105 % of control.

Question: And the T/C (dose: 150.0 mg/kg/injection, schedule: Q04DX003 (ip), vehicle: other)?
Answer: The T/C was 255 % of control and 95 % of control.

Question: And the T/C (dose: 225.0 mg/kg/injection, schedule: Q04DX003 (ip), vehicle: other)?
Answer: Its T/C is 100 % of control.

Question: CN=C(NN(C)C)c1ccc(NC(=O)c2ccc(C(=O)Nc3ccc(C(=NC)NN(C)C)cc3)cc2)cc1 was tested. Which T/C (dose: 4.0 mg/kg/injection, schedule: Q01DX009 (ip), vehicle: saline with Tween-80) did it give?
Answer: The T/C was 100 % of control.

Question: What about the T/C (dose: 9.0 mg/kg/injection, schedule: Q01DX009 (ip), vehicle: saline with Tween-80) of the same molecule?
Answer: The T/C was 150 % of control.

Question: For c1ccc(P(=NC2CCCC2)(c2ccccc2)c2ccccc2)cc1, which T/C (dose: 100.0 mg/kg/injection, schedule: Q04DX003 (ip), vehicle: saline with Tween-80) is on record?
Answer: The T/C was 110 % of control.

Question: What about the T/C (dose: 200.0 mg/kg/injection, schedule: Q04DX003 (ip), vehicle: saline with Tween-80) of the same molecule?
Answer: Its T/C is 100 % of control.

Question: What about the T/C (dose: 400.0 mg/kg/injection, schedule: Q04DX003 (ip), vehicle: saline with Tween-80) of the same molecule?
Answer: Its T/C is 110 % of control.

Question: Which T/C (dose: 0.94 mg/kg/injection, schedule: Q01DX010 (ip), vehicle: saline) does the source give for BrCCC[P+](c1ccccc1)(c1ccccc1)c1ccccc1 here?
Answer: Its T/C is 95 % of control.

Question: And the T/C (dose: 1.88 mg/kg/injection, schedule: Q01DX010 (ip), vehicle: saline)?
Answer: The T/C was 104 % of control.

Question: And the T/C (dose: 1.9 mg/kg/injection, schedule: Q01DX009 (ip), vehicle: saline)?
Answer: Its T/C is 105 % of control.

Question: And the T/C (dose: 3.13 mg/kg/injection, schedule: Q04DX003 (ip), vehicle: saline)?
Answer: Its T/C is 92 % of control.

Question: What about the T/C (dose: 3.75 mg/kg/injection, schedule: Q01DX009 (ip), vehicle: saline) of the same molecule?
Answer: Its T/C is 122 % of control.

Question: And the T/C (dose: 3.75 mg/kg/injection, schedule: Q01DX010 (ip), vehicle: saline)?
Answer: Its T/C is 114 % of control.

Question: And the T/C (dose: 6.25 mg/kg/injection, schedule: Q04DX003 (ip), vehicle: saline)?
Answer: Its T/C is 92 % of control.

Question: And the T/C (dose: 7.5 mg/kg/injection, schedule: Q01DX009 (ip), vehicle: saline)?
Answer: The T/C was 111 % of control.

Question: And the T/C (dose: 7.5 mg/kg/injection, schedule: Q01DX010 (ip), vehicle: saline)?
Answer: The T/C was 123 % of control.

Question: And the T/C (dose: 12.5 mg/kg/injection, schedule: Q01DX009 (ip), vehicle: saline with Tween-80)?
Answer: The T/C was 150 % of control.

Question: What about the T/C (dose: 12.5 mg/kg/injection, schedule: Q04DX003 (ip), vehicle: saline) of the same molecule?
Answer: Its T/C is 103 % of control.

Question: What about the T/C (dose: 15.0 mg/kg/injection, schedule: Q01DX009 (ip), vehicle: saline) of the same molecule?
Answer: The T/C was 194 % of control.

Question: What about the T/C (dose: 15.0 mg/kg/injection, schedule: Q01DX010 (ip), vehicle: saline) of the same molecule?
Answer: Its T/C is 118 % of control.

Question: For COc1ccc(C(Br)C(Br)C(=O)c2ccc3c(c2)OCO3)cc1OC (configuration not stated), which T/C (dose: 25.0 mg/kg/injection, schedule: Q04DX003 (ip), vehicle: saline) is on record?
Answer: Its T/C is 104 % of control.

Question: And the T/C (dose: 50.0 mg/kg/injection, schedule: Q04DX003 (ip), vehicle: saline)?
Answer: The T/C was 90 % of control.

Question: And the T/C [1]?
Answer: The T/C was 113 % of control.

Question: What about the T/C [2] of the same molecule?
Answer: Its T/C is 97 % of control.

Question: And the T/C [3]?
Answer: The T/C was 90 % of control.

Question: And the T/C (dose: 600.0 mg/kg/injection, schedule: Q04DX003 (ip), vehicle: saline)?
Answer: Its T/C is 119 % of control.

Question: S=C1SCCS1 was tested. Which T/C (dose: 25.0 mg/kg/injection, schedule: Q01DX009 (ip), vehicle: saline with Tween-80) did it give?
Answer: The T/C was 100 % of control.

Question: What about the T/C (dose: 50.0 mg/kg/injection, schedule: Q01DX009 (ip), vehicle: saline with Tween-80) of the same molecule?
Answer: Its T/C is 95 % of control.

Question: And the T/C (dose: 100.0 mg/kg/injection, schedule: Q01DX009 (ip), vehicle: saline with Tween-80)?
Answer: Its T/C is 104 % of control.

Question: And the T/C [1]?
Answer: Its T/C is 91 % of control.

— PubChem BioAssay AID328 (DTP/NCI, 2004)
